SMILES strings stand for the structures. “Also recorded” adds a separate entry of the source. Like-named read-outs stand apart in the source and are kept apart here.

For orientation: IC50 means the point on the concentration scale where inhibition reaches its midpoint.

In test [1] the target is T1, serotonin-1A receptor (5-HT1A) (Rattus norvegicus, UniProt P19327).
T1 sequence (P19327 1-422): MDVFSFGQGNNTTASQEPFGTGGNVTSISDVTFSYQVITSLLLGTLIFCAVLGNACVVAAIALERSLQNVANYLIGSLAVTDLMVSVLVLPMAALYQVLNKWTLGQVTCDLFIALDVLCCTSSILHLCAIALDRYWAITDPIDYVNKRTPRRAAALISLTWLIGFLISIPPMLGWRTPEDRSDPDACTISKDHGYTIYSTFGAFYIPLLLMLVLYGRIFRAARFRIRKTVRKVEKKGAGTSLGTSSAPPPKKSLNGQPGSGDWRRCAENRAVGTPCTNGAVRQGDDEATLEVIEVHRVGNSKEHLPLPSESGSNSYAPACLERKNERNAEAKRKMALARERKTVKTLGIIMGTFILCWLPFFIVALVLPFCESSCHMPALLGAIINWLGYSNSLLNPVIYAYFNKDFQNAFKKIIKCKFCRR
The test can be described thus: biochemical. The test is classed as binding, rat (Sprague-Dawley). The settings on record: for Ratio Beta IC50 / 5-HT1A IC50: selectivity for 5-HT1A over beta receptor, Beta IC50 from 3H-dihydroalprenolol binding. The procedure: The compounds of this invention were evaluated in the following tests systems.
(§1) Procedure for radioligand receptor assays--Male Sprague-Dawley rats weighing 110-150 g were decapitated and brains were immediately removed. Bovine brains were quickly removed from calf in the slaughterhouse. Cerebral cortices were dissected out at 4° C. and homogenized in 0.32M sucrose. After centrifugation at 1000×g for 10 minutes and then 17,000×g for 20 minutes, a crude synaptosomal fraction was sedimented. The pellet was suspended in 100 volumes of 50 mM tris-HCl buffered at pH 7.4, incubated at 37° C. for 10 minutes, and centrifuged at 50,000×g for 10 minutes. The process was repeated and the final pellet was suspended in ice-chilled 50 mM tris-HCl buffered at pH 7.4.
Binding of ^3 H-8-hydroxy-2- (di-n-propylamino) tetralin(3H-80HDPAT) to serotonin-1A receptor was performed according to the method described by Wong et al., J. Neural Transm. , 71, 207 (1988). Cortical membranes (300 μg protein) isolated from rat brain were incubated at 28 C for 30 minutes in 2 ml of medium containing 50 mM tris-HCl buffered at pH 7.4; 10 μM pargyline; 0.6 mM ascorbic acid; 5 mM calcium chloride; 0.4 nM 3H-8OHDPAT; and various concentrations of test compound. Binding was terminated by filtering samples under reduced pressure through glass fiber (GFB) filters. The filters were washed twice with 5 ml of ice cold buffer and placed in scintillation vials with 10 ml of PCS (Amlersham/Searle) scintillation fluid. Radioactivity was measured with a liquid scintillation spectrometer. Specific binding of 3H-80HDPAT is defined as the difference of radioactivity bound in the absence and in the presence of 10 μM spiperone.

Test [2] addresses β-adrenergic receptors. The test can be described thus: Binding of 3H-dihydroalprenolol to β-adrenergic receptors, calf brain cortical membranes. Further details: species or system bovine (calf). The settings on record: inhibition of 2 nM 3H-dihydroalprenolol binding, 20° C, 20 minutes, pH 7.4, read-out: Beta IC50. The procedure: as §1, with “The compounds of this invention were evaluated in the following tests systems. Procedure” for “Procedure”, “7.4. […] Cortical membranes (500 μg protein) of calf brain were incubated at 20° C. for 20 minutes in 2 ml of medium containing […] tris-HCl buffered at pH 7.4; 2 nM 3H-dihydroalprenolol; and various concentrations of test compound. Binding was terminated by filtering samples through glass fiber (GFC) filters. […] Other conditions were as described for 3[…] binding.” for “7.4.”

Test [3] concerns 5-HT1A and 5-HT1B receptors. The conditions noted are these: background knowledge; cited from earlier work.
The mark [4] stands for this setting: inhibition of 0.4 nM 3H-8OHDPAT binding, rat cortical membranes, 28 C, 30 minutes, pH 7.4.

Regarding `CC1CCCCC1NCC(O)COc1cccc2ccccc12` (stereo not drawn) [(2-methylcyclohexyl)], the IC50 was 33.4 nM in test [1] (setting [4]) and 174 nM in test [2]. Further, the “Ratio Beta IC50 / 5-HT1A IC50” value in test [1] was determined as 5.2.

In the case of `OC(CN[C@H]1CC[C@H](c2ccccc2)CC1)COc1cccc2ccccc12` (stereo partly drawn) [(E-4-phenylcyclohexyl)], the IC50 in test [1] (setting [4]) was over 1000 nM; in test [2], 264 nM. In test [1], the “Ratio Beta IC50 / 5-HT1A IC50” value is reported as under 0.26.

`OC(CN[C@H]1CC[C@@H](c2ccccc2)CC1)COc1cccc2ccccc12` (stereo partly drawn) [(Z-4-phenylcyclohexyl)]: the IC50 in test [1] (setting [4]) stood at 34.1 nM; in test [2], 442 nM. In test [1], the “Ratio Beta IC50 / 5-HT1A IC50” value worked out at 13.

As for `O=C(O)C(=O)O.OC(CNC1CCCCCC1)COc1cccc2ccccc12` (stereo not drawn) [(cycloheptyl), 1-(1-Naphthalenoxy) -3-(cycloheptylamino) -2-propanol ethanedioate], the IC50 in test [1] came out at 23 nM; in test [2] it was 2280 nM. Moreover, the “Ratio Beta IC50 / 5-HT1A IC50” value in test [1] is recorded as 99.

With `OC(CNC1CCCCC1)COc1cccc2ccccc12` (stereo not drawn) [(cyclohexyl)], the half-inhibitory concentration (IC50) in test [1] (setting [4]) was 15.4 nM; in test [2], 622 nM. For the same molecule, the “Ratio Beta IC50 / 5-HT1A IC50” value in test [1] is 40.4.

For the molecule `O=C(O)C(=O)O.OC(CNC1CCCCCCC1)COc1cccc2ccccc12` (stereo not drawn) [(cyclooctyl), 1-(1-Naphthalenoxy)-3-(cyclooctylamino) -2-propanol ethanedioate], in test [1], the IC50 was determined as 45 nM and the “Ratio Beta IC50 / 5-HT1A IC50” value came out at 22.2. In addition, the IC50 in test [2] was determined as 1000 nM.

As for `OC(CNC1CCCC1)COc1cccc2ccccc12` (stereo not drawn) [(cyclopentyl)], the IC50 is 49 nM in test [1] (setting [4]) and 138 nM in test [2]. Further, the “Ratio Beta IC50 / 5-HT1A IC50” value in test [1] is given as 2.8.

Take `CC(C)(C)C(C)(C)NCC(O)COc1cccc2ccccc12` (stereo not drawn) [C(CH3)2 C(CH3)3]: the IC50 in test [1] (setting [4]) worked out at 16.8 nM; in test [2] it was 225 nM. For the same molecule, the “Ratio Beta IC50 / 5-HT1A IC50” value in test [1] is recorded as 15.2.

For the molecule `CC#CC(C)(C)NCC(O)COc1cccc2ccccc12` (stereo not drawn) [C(CH3)2 CCCH3], the IC50 was 38 nM in test [1] (setting [4]) and 398 nM in test [2]. Also, the “Ratio Beta IC50 / 5-HT1A IC50” value in test [1] stood at 10.5.

On to `C#CC(C)(C)NCC(O)COc1cccc2ccccc12` (stereo not drawn) [C(CH3)2 CCH], for which the IC50 in test [1] (setting [4]) was 88 nM; in test [2], 1360 nM. The “Ratio Beta IC50 / 5-HT1A IC50” value in test [1] is 15.4.

As for `CCCC(C)(C)NCC(O)COc1cccc2ccccc12` (stereo not drawn) [C(CH3)2 CH2 CH2 CH3], the IC50 in test [1] (setting [4]) was 41 nM; in test [2], 98 nM. Further, in test [1], the “Ratio Beta IC50 / 5-HT1A IC50” value is 2.4.

`CCC(C)(C)NCC(O)COc1cccc2ccccc12` (stereo not drawn) [C(CH3)2 CH2 CH3]: the IC50 worked out at 53 nM in test [1] (setting [4]) and 1050 nM in test [2]. Further, the “Ratio Beta IC50 / 5-HT1A IC50” value in test [1] was 20.

On to `C=CC(C)(C)NCC(O)COc1cccc2ccccc12` (stereo not drawn) [C(CH3)2 CHCH2], for which the IC50 in test [1] (setting [4]) was 100 nM; in test [2], 124 nM. In addition, the “Ratio Beta IC50 / 5-HT1A IC50” value in test [1] stood at 1.24.

Consider `CC(C)(C)NCC(O)COc1cccc2ccccc12` (stereo not drawn) [C(CH3)3], for which the IC50 in test [1] (setting [4]) was found to be 77 nM; in test [2], 97.3 nM. Also, the “Ratio Beta IC50 / 5-HT1A IC50” value in test [1] amounted to 1.3.

For the molecule `OC(CNCCc1ccccc1)COc1cccc2ccccc12` (stereo not drawn) [CH2 CH2 C6 H5], the IC50 in test [1] (setting [4]) stood at 63 nM; in test [2], 313 nM. The “Ratio Beta IC50 / 5-HT1A IC50” value in test [1] was 4.8.

Turning to `CCCCCNCC(O)COc1cccc2ccccc12` (stereo not drawn) [CH2 CH2 CH2 CH2 CH3], the IC50 turned out to be 23.4 nM in test [1] (setting [4]) and 185 nM in test [2]. Further, in test [1], the “Ratio Beta IC50 / 5-HT1A IC50” value is on record as 7.9.

In the case of `CCCCNCC(O)COc1cccc2ccccc12` (stereo not drawn) [CH2 CH2 CH2 CH3], the IC50 in test [1] (setting [4]) amounted to 36.9 nM; in test [2], 124 nM. Further, the “Ratio Beta IC50 / 5-HT1A IC50” value in test [1] turned out to be 3.4.

In the case of `CC(C)CNCC(O)COc1cccc2ccccc12` (stereo not drawn) [CH2 CH(CH3)2], the results for the IC50 in test [1] (setting [4]) and in test [2] were 73 nM and 683 nM, respectively. In addition, the “Ratio Beta IC50 / 5-HT1A IC50” value in test [1] was determined as 9.4.

With `CCCC(C)(C)NCC(O)COc1ccccc1C1CCCC1.O=C(O)C(=O)O` (stereo not drawn) [CH(CH3)2 CH2 CH2 CH3, 1-(2-Cyclopentylphenoxy)-3-(1,1-dimethylbutylamino) -2-propanol ethanedioate], in test [1], it took 6.5 nM to reach half-maximal inhibition (IC50) and the “Ratio Beta IC50 / 5-HT1A IC50” value is 2.5. For the same molecule, the IC50 in test [2] is 16 nM.

Turning to `C#CC(C)NCC(O)COc1cccc2ccccc12` (stereo not drawn) [CH(CH3)CCH], the IC50 in test [1] (setting [4]) was 180 nM; in test [2] it was 1270 nM. Further, the “Ratio Beta IC50 / 5-HT1A IC50” value in test [1] is given as 7.1.

For the molecule `CCC(C)NCC(O)COc1cccc2ccccc12` (stereo not drawn) [CH(CH3)CH2 CH3], the IC50 in test [1] (setting [4]) stood at 73 nM; in test [2], 104 nM. Also, the “Ratio Beta IC50 / 5-HT1A IC50” value in test [1] was found to be 1.4.

Regarding `COCC(C)NCC(O)COc1cccc2ccccc12` (stereo not drawn) [CH(CH3)CH2 OCH3], the results for the IC50 in test [1] (setting [4]) and in test [2] were 147 nM and 65 nM, respectively.

`O=C(O)/C=C\C(=O)O.OC(CNC1CCCCC1)COc1cccc2[nH]ccc12` (stereo not drawn) [Cyclohexyl, 1-(4-Indolyloxy)-3-(cyclohexylamino)-2-propanol maleate]: the IC50 in test [1] (setting [4]) worked out at 10.3 nM; in test [2], 56 nM. The “Ratio Beta IC50 / 5-HT1A IC50” value in test [1] came out at 5.4.

Take `O=C(O)C(=O)O.OC(CNC1CCCCCC1)COc1ccccc1C1CCCC1` (stereo not drawn) [cycloheptyl, 1-(2-Cyclopentylphenoxy)-3-(cycloheptylamino) 2-propanol ethanedioate]: in test [1], the IC50 came out at 3 nM and the “Ratio Beta IC50 / 5-HT1A IC50” value is reported as 16. Besides, in test [2], the IC50 came out at 48 nM.

Consider `O=C(O)C(=O)O.OC(CNC1CCCCCCC1)COc1ccccc1C1CCCC1` (stereo not drawn) [cyclooctyl, 1-(2-Cyclopentylphenoxy) -3-(cyclooctylamino) 2-propanol ethanedioate], for which the IC50 is 5 nM in test [1] and over 1000 nM in test [2]. The “Ratio Beta IC50 / 5-HT1A IC50” value in test [1] is given as over 200.

On to `OC(CNC1CCCC1)COc1ccccc1C1CCCC1` (stereo not drawn) [cyclopentyl], for which the figures for the IC50 in test [1] (setting [4]) and in test [2] were 5 nM and 7 nM, respectively. Moreover, the “Ratio Beta IC50 / 5-HT1A IC50” value in test [1] amounted to 1.4.

Regarding `CC(C)NCC(O)COc1cccc2[nH]ccc12` (stereo not drawn) [pindolol], the “antagonism of 5-HT1 receptors relative to β-block (in words)” value in test [3] was “at concentrations far in excess of those shown to block the β-receptor; also recorded: not selective agents for the serotonin receptor due to their β-blocking activities”.

(Values after US5554640A, “Use of propanolamine derivatives as selective 5-HT1 antagonists” (Eli Lilly and Company, priority 1995, dated 1996).)
